# In the supplement of paper PMC8149375:
# Assays:
# Conditions in all cases: treatment: drug + dasatinib (fixed dose, not stated); 5 days
# UO-31 [1] = test: GI50 of drug in presence of dasatinib; higher = less potent
# Procedure: (§1)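 Primary HTS combination arm: 8 RCC cell lines treated with 8 doses (up to 10 uM) of each library drug plus a fixed dose of dasatinib (dose not stated) for 5 days; viability read by CellTiter-Glo and normalised to DMSO. GI50 was fitted with XLfit, AUC is the area under the dose-response curve, and minimum viability is the lowest fraction of DMSO viability across doses.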
# A498 [2] = test: as above
# Procedure: as §1
# CAKI-1 [3] = test: as above
# Procedure: as §1
# ACHN [4] = test: as above
# Procedure: as §1
# 769-P [5] = test: as above
# Procedure: as §1
# 786-O [6] = test: as above
# Procedure: as §1
# TK-10 [7] = test: as above
# Procedure: as §1
# SN12C [8] = test: as above
# Procedure: as §1
# UO-31 [9] = test: minimum viability across doses, drug + dasatinib, relative to DMSO (fraction); higher = less growth inhibition
# Procedure: as §1
# A498 [10] = test: as above
# Procedure: as §1
# CAKI-1 [11] = test: as above
# Procedure: as §1
# ACHN [12] = test: as above
# Procedure: as §1
# 769-P [13] = test: as above
# Procedure: as §1
# 786-O [14] = test: as above
# Procedure: as §1
# TK-10 [15] = test: as above
# Procedure: as §1
# SN12C [16] = test: as above
# Procedure: as §1
# UO-31 [17] = test: AUC of dose-response viability curve, drug + dasatinib, normalised to DMSO (arbitrary (AUC of normalised viability)); higher = less growth inhibition
# Procedure: as §1
# A498 [18] = test: as above
# Procedure: as §1
# CAKI-1 [19] = test: as above
# Procedure: as §1
# ACHN [20] = test: as above
# Procedure: as §1
# 769-P [21] = test: as above
# Procedure: as §1
# 786-O [22] = test: as above
# Procedure: as §1
# TK-10 [23] = test: as above
# Procedure: as §1
# SN12C [24] = test: as above
# Procedure: as §1
SMILES,GI50 of drug (UO-31 [1]),GI50 of drug (A498 [2]),GI50 of drug (CAKI-1 [3]),GI50 of drug (ACHN [4]),GI50 of drug (769-P [5]),GI50 of drug (786-O [6]),GI50 of drug (TK-10 [7]),GI50 of drug (SN12C [8]),minimum viability across doses (UO-31 [9]),minimum viability across doses (A498 [10]),minimum viability across doses (CAKI-1 [11]),minimum viability across doses (ACHN [12]),minimum viability across doses (769-P [13]),minimum viability across doses (786-O [14]),minimum viability across doses (TK-10 [15]),minimum viability across doses (SN12C [16]),AUC of dose-response viability curve (UO-31 [17]),AUC of dose-response viability curve (A498 [18]),AUC of dose-response viability curve (CAKI-1 [19]),AUC of dose-response viability curve (ACHN [20]),AUC of dose-response viability curve (769-P [21]),AUC of dose-response viability curve (786-O [22]),AUC of dose-response viability curve (TK-10 [23]),AUC of dose-response viability curve (SN12C [24])
COc1cc2ncnc(Nc3ccc(F)c(Cl)c3)c2cc1NC(=O)/C=C/CN1CCCCC1 + Cc1nc(Nc2ncc(C(=O)Nc3c(C)cccc3Cl)s2)cc(N2CCN(CCO)CC2)n1 [dasatinib],1160 nM,2350 nM,485 nM,< 3 nM,25.5 nM,< 3 nM,53.6 nM,567 nM,0.0145,0.0146,0.00568,0.00207,0.00783,0.0063,0.00803,0.00664,2.31,2.74,1.63,0.908,1.25,1.02,1.46,1.81
C[C@@H](Oc1cc(-c2cnn(C3CCNCC3)c2)cnc1N)c1c(Cl)ccc(F)c1Cl + Cc1nc(Nc2ncc(C(=O)Nc3c(C)cccc3Cl)s2)cc(N2CCN(CCO)CC2)n1 [dasatinib],539 nM,3260 nM,837 nM,475 nM,2260 nM,798 nM,3550 nM,748 nM,0.0115,0.284,0.0151,0.0735,0.0606,0.00845,0.149,0.175,2.11,2.68,1.91,1.81,2.43,2.22,2.65,1.98
COCC(=O)NC/C=C/c1ccc2ncnc(Nc3ccc(Oc4ccc(C)nc4)c(C)c3)c2c1 + Cc1nc(Nc2ncc(C(=O)Nc3c(C)cccc3Cl)s2)cc(N2CCN(CCO)CC2)n1 [dasatinib],> 10000 nM,> 10000 nM,6790 nM,3030 nM,2130 nM,9120 nM,3970 nM,> 10000 nM,0.653,0.925,0.492,0.386,0.253,0.479,0.406,0.632,3.68,3.67,2.26,1.88,2.18,2.46,2.41,2.48
CCc1cc2c(cc1N1CCC(N3CCOCC3)CC1)C(C)(C)c1[nH]c3cc(C#N)ccc3c1C2=O + Cc1nc(Nc2ncc(C(=O)Nc3c(C)cccc3Cl)s2)cc(N2CCN(CCO)CC2)n1 [dasatinib],7800 nM,> 10000 nM,2340 nM,659 nM,> 10000 nM,> 10000 nM,5110 nM,> 10000 nM,0.0552,1.12,0.311,0.247,0.535,0.614,0.377,0.675,5.15,4.59,2.04,1.82,2.47,2.35,2.35,2.45
CN1CCN(c2cccc(Nc3nc4c(-c5ccc(S(C)(=O)=O)cc5)cccn4n3)c2)CC1 + Cc1nc(Nc2ncc(C(=O)Nc3c(C)cccc3Cl)s2)cc(N2CCN(CCO)CC2)n1 [dasatinib],3160 nM,> 10000 nM,704 nM,3.78 nM,4170 nM,5280 nM,1250 nM,> 10000 nM,0.0195,1.02,0.0803,0.0965,0.293,0.443,0.174,0.246,3.59,3.99,1.84,1.23,2.27,2.21,2.12,2.37
CC(C)(C)c1nc(-c2cccc(NS(=O)(=O)c3c(F)cccc3F)c2F)c(-c2ccnc(N)n2)s1 + Cc1nc(Nc2ncc(C(=O)Nc3c(C)cccc3Cl)s2)cc(N2CCN(CCO)CC2)n1 [dasatinib],> 10000 nM,> 10000 nM,121 nM,134 nM,> 10000 nM,30.8 nM,563 nM,> 10000 nM,0.58,1.01,0.0739,0.113,0.55,0.184,0.3,0.684,3.99,4.08,1.48,1.51,2.36,1.49,2,2.61
O=C(NOCC1CC1)c1ccc(F)c(F)c1Nc1ccc(I)cc1Cl + Cc1nc(Nc2ncc(C(=O)Nc3c(C)cccc3Cl)s2)cc(N2CCN(CCO)CC2)n1 [dasatinib],2610 nM,3190 nM,1480 nM,342 nM,1780 nM,4460 nM,4600 nM,1520 nM,0.174,0.306,0.13,0.224,0.197,0.431,0.367,0.298,2.72,2.51,2.04,1.8,2.12,2.46,2.4,2.07
